Counter-ions that a name gives are not always drawn.
Legend:
isolated rat brain stem [1] = assay: Release of labelled transmitter from isolated rat brain stem to electrical stimulation
Source text: After a single washout the neurons work immediately on their normal activity level again. Since neurons respond to stimulation in an “all or none” manner, it is obvious that only a part of the neuronal population (the most excitable ones) respond to the electrical stimulation.
This measurement can be made, mutatis mutandis, analogously to the measurement described in example 2 of EP1052259B1 (corresponding to WO2000026204A1). The method is described in [Knoll J, Knoll B and Miklya I Life Sci, 58, 2101-2114 (1996)].
In short the brain stem (average weight about 800 mg) is isolated from rats and soaked in oxygenated Krebs' solution. Then solution of labelled neurotransmitter the release of which is measured is added to the preparation and allowed for uptake in an appropriate environment. If needed, MAO activity is inhibited.
After uptake of the monoamine the brain stem is fixed in appropriate organ bath and washed in appropriate solution facilitating uptake and preventing metabolization of the monoamine.
Fractionation of the perfusate is carried out periodically and, if the monoamine is radiolabelled, fractions are combined with a scintillation liquid.
The organ is perfused with the buffer containing the compound(s) of the invention for sufficient time before electrostimulation.
The brain stem is stimulated with rectangular pulses (e.g. 3 Hz, 1 ms 60 V) e.g. for 3 min. At the beginning of the experiment, the several, e.g. three resting periods of fraction were proceeded prior to the first stimulation. Thereafter it is allotted several, e.g. seven resting periods of fraction between stimulation.

[2] = tested on: male Wistar rats (Charles River); assay: Longevity study: survival of rats treated 3 times a week s.c.; type: in vivo, rat
Protocol: Experiments were carried out on male Wistar rats (Charles River) weighing 250-350 g received from the breeding colony of Semmelweis University. The animals were kept in a 12-hour light-dark cycle and under condition of controlled temperature (22±2° C.) and relative humidity (55±5%). Room temperature and relative humidity was checked daily. The rats were maintained on standard laboratory chow and tap water ad libitum. All procedures conformed to the European Convention for the protection of vertebrate animals used for experimental and other scientific purposes. The study was approved by the Animal Ethics Committee of Semmelweis University, Budapest (permission number: 1810/003/2004)
(§1) The longevity study was performed on 200 male rats received from the breeding colony of the Semmelweis University. The rats were born at the end of February of 2010. After 2-month acclimation period the rats were divided randomly into 5 even groups. The longevity study started at the beginning of May 2010. Animals were observed until their natural deaths. The data in this study represent the changes observed until Oct. 31, 2012, since in the saline-treated group the last animal died on Oct. 31, 2012. As will be shown later a few rats in the enhancer-treated groups were still alive on Nov. 1, 2012.
(§2) During the longevity study 5 rats were housed together in polycarbonate cages (height: 18 cm; wide: 42 cm; length: 44 cm) with a stainless steel on the top. Cage bedding was renewed 3 times a week (Monday, Wednesday and Friday). Bodyweight was measured once every month. The treatment started at the end of the second month of their age.
To avoid the mixing of the groups and individuals, saline-treated rats were signed blue from 1 to 40; D-treated rats were signed green from 1 to 80 (1-40: rats treated with 0.1 mg/kg and 41-80: rats treated with 0.001 mg/kg); B-treated rats were signed black from 1 to 80 (1-40: rats treated with 0.05 mg/kg and 41-80: rats treated with 0.0001 mg/kg).
(§3) Significance in the performance between the groups in the shuttle box was evaluated by multi-factor analysis of variance (ANOVA). Significance regarding the span of time from tumor manifestation until death in rats and regarding aging related changes in bodyweight treated chronically with the enhancer substances was analyzed by One-way ANOVA. Statistical analysis of survival rate and tumor manifestation was performed by the Kaplan-Meier method.

fibromyxosarcoma = assay: Longevity study: manifestation of subcutaneous fibromyxosarcoma (TMS effect); type: in vivo, rat; settings: for tumor manifestation suppressing (TMS) effect versus saline: Kaplan-Meier
Protocol: as §1, §2
We carefully observed the appearance of the subcutaneous tumor and followed the development of the tumor until death. Histological analysis was performed post mortem on several rats taken from each group as examples.
The subcutaneous tumors developed in the rats were measured by the two largest diameters. After sacrificing the animals, the tumors were removed, photographs were taken. Tissues were fixed immediately after removal in 10% neutral formalin (in PBS, pH7.0) for 24 hours at room temperature, dehydrated and embedded in paraffin. 3-4 micrometer thick sections were cut and stained by hematoxylin and eosin (HE) as a routine.
as §3

[3] = tested on: catecholaminergic neurons; assay: Shuttle box: antagonism of tetrabenazine-induced learning deficit (conditioned avoidance reflex); type: in vivo, rat
Protocol: In a modified version of the shuttle box the acquisition of a two-way conditioned avoidance reflex (CAR) was analyzed during 5 consecutive days. The rat was put in a box divided inside into two parts by a barrier with a small gate in the middle, and the animal was trained to cross the barrier under the influence of a conditioned stimulus (CS, light flash). […] One trial consisted of 10 s intertrial interval, followed by 20 s CS. The last 5 s of CS overlaped the 5 s US. At each learning session, the number of CARs, EFs and intersignal reactions (IRs) are automatically counted and evaluated by multi-way ANOVA.
Tetrabenazine-treatment (1 mg/kg s.c.) depletes at least 90% of norepinephrine and dopamine from their stores in the nerve terminals of the catecholaminergic neurons in the brain stem. Due to the weak performance of the catecholaminergic brain engine, the activation of the cortical neurons remains below the level required for the acquisition of a CAR. The learning deficit caused by tetrabenazine-treatment can be antagonized by the administration of a synthetic CAE substance or an A-type MAO inhibitor, whereas selective inhibition of B-type MAO or inhibition of the reuptake of catecholamines and/or serotonin is ineffective (Knoll et al., 1992).

Daoy HTB-186 cell line = assay: MTT proliferation assay, Daoy medulloblastoma cells; type: cell-based, human; settings: monotherapy, nine concentrations 10^-14 to 10^-6 M, 72 hours
Protocol: (§4) Human medulloblastoma cell line, Daoy was purchased from ATCCC, UW-228 was obtained from the courtesy of Professor Silber (Univerity of Washington, Seattle, Wash., USA).
(§5) Daoy and UW-228-2 cell lines were maintained in culture medium (each 500 ml Minimum Essential Medium Eagle, Alpha Modification (M8042, Sigma, St Louis, USA) with 50 ml FCS (Gibco), 40 mg Gentamicin (Sandoz), 5 ml sodium-pyruvate (S8636, Sigma, St Louis, USA), 5 ml non-essential-amino acid solution (M7145, Sigma, St Louis, USA), 10 ml L-glutamin (Sigma, St Louis, USA) at 37° C. in humified 5% CO2.
(§6) In each well 3×10^3 Daoy or UW-228-2 cells were seeded in 96-well plates (Sarstedt), solved in 100 μl of its own medium with 10% FCS. 24 hours after seeding, cells were treated for 72 hours by drugs solved in further 100 μl medium. First, both cell lines were treated by (−)-BPAP and (−)-deprenil in monotherapy to determine its dose-effect curves in concentration of 10^−6, 10^−7, 10^−8, 10^−9, […], 10^−11, 10^−12, 10^−13 and 10^−14 M. In combined treatment 10^−3, 3.3×10^−4, […] and 3.7×10^−5 M of temozolomide (Schering Plough, USA) or 0.04, 0.2, 1, 5 μM of Cisplatin (Ebewe Pharma, Austria) or 0.04, 0.2, 1, 5 μM of etoposide (Ebewe Pharma, Austria) or 10^−7, 10^−6, 10^−5 and 10^−4 μM (UW228-2) or 0.001, 0.005, 0.025 and 0.125 μM (Daoy) of Vincristin (Richter Gedeon, Hungary) were applied in monotherapy or combined with 10^−13 or 10^−8 M of (−)-BPAP or (−)-deprenil.
(§7) Cell proliferation was evaluated by MTT (3-(4,5-Dimethylthiazol-2-yl)-2,5-diphenyltetrazolium bromide) assay (M5655, Sigma) after 72-hour treatment by the method described in manufacturer's protocol.

UW-228-2 cell line = assay: MTT proliferation assay, UW-228-2 medulloblastoma cells; type: cell-based, human; settings: UW-228-2, monotherapy, nine concentrations 10^-14 to 10^-6 M, 72 hours
Protocol: as §4, §5, §6, §7

lung carcinoma = assay: Longevity study on FVB/N mice: spontaneous lung carcinoma at autopsy; type: in vivo, mouse; settings: 18-month
Protocol: Body weight is measured bimonthly.
For monitoring, we planned to sacrifice mice from each group at 6-month, 1-year, 1.5-year and 2-year time-points; the rest of the animals are kept until spontaneous death.
The results are shown in Table 4 and on FIGS. 19 and 20. Significance levels were calculated with two-sided Chi-square test.

isolated rat brain stem [4] = settings: optimal concentration for the specific enhancer effect, 3-min collection period; review Knoll, 2005; cited from earlier work
[5] = tested on: Wistar-Logan strain of rats; settings: cited from earlier work
[6] = tested on: catecholaminergic neurons in the brain stem; settings: 1 mg/kg s.c.; cited from earlier work
[7] = shuttle box, 1 mg/kg tetrabenazine s.c.

## CNCCC(Oc1ccc(C(F)(F)F)cc1)c1ccccc1 (centres unmarked) [fluoxetine]
Isolated rat brain stem [1]; 50 ng/ml
  release of [3H]-SER to electrical stimulation: None of these compounds enhanced the release

## C#CCN(C)[C@H](C)Cc1ccccc1 [(−)-Deprenyl, (R)—N-methyl-N-(1-phenylpropan-2-yl)prop-2-yn-1-amine, reference compound]
[2]; 0.001 mg/kg s.c. 3 times a week, N=40
  month of age in which the first animal died: 13 month
[2]; 0.001 mg/kg, N=40
  rats remained alive to the end of the 32nd month: none
[2]; 0.1 mg/kg s.c. 3 times a week, N=40
  month of age in which the first animal died: 11 month
[2]; both doses of the longevity study (FIGS. 5-8)
  lifespan compared with saline-treated peers: did not prolong the lifespan of rats significantly
fibromyxosarcoma; 0.001 mg/kg
  tumor manifestation suppressing (TMS) effect versus saline: not significant
fibromyxosarcoma; 0.001 mg/kg, N=40
  month of age in which the first animal manifested the tumor: 12 month
  rats in the group manifested the tumor to the end of the 32nd month: 15 rats
fibromyxosarcoma; 0.1 mg/kg, P<0.01, listed as (−)-deprenyl
  tumor manifestation suppressing (TMS) effect versus saline: significantly decreased
fibromyxosarcoma; 0.1 mg/kg, P<0.01, listed as Deprenyl
  tumor manifestation suppressing (TMS) effect versus saline: suppressed the manifestation of the fibromyxosarcoma significantly
fibromyxosarcoma; 0.1 mg/kg, N=40
  month of age in which the first animal manifested the tumor: 16 month
  rats in the group manifested the tumor to the end of the 32nd month: 11 rats
  rats manifested the tumor when the group completed the 30th month of life: 11 rats
fibromyxosarcoma; chronic treatment, versus saline (FIG. 13), One-way ANOVA
  span of time from tumor manifestation until death: no significant difference
[3]; shuttle box (FIG. 3)
  dose-effect-relation of the enhancer effect: bi-modal, bell-shaped
[3]; [7]
  optimal dose that exerted the specific enhancer effect: 0.001 mg/kg
  very high dose range effective in antagonizing the tetrabenazine-induced learning deficit (MAO-A inhibition): 5 to 10 mg/kg
Daoy HTB-186 cell line; listed as (−)-deprenyl
  proliferation of cultured medulloblastoma cells: did not inhibit the proliferation
Daoy HTB-186 cell line; listed as Deprenyl
  proliferation of cultured medulloblastoma cells: none of the applied concentrations did Deprenyl or BPAP influence the proliferation
UW-228-2 cell line; listed as (−)-deprenyl
  proliferation of cultured medulloblastoma cells: did not inhibit the proliferation
UW-228-2 cell line; listed as Deprenyl
  proliferation of cultured medulloblastoma cells: none of the applied concentrations did Deprenyl or BPAP influence the proliferation
Lung carcinoma; 0.001 mg/kg daily, 2 dissected mice
  Number of detected lung carcinoma: 0
Lung carcinoma; 0.1 mg/kg daily, 4 dissected mice
  Number of detected lung carcinoma: 1
Isolated rat brain stem [4]
  released amount of labeled transmitter ([3H]-norepinephrine, [3H]-dopamine or [3H]-serotonin): significantly higher
[5]; HP rats, out of 50
  rats that lived longer than the maximum lifespan ever observed in the strain: 17 rats
[5]; sexually lowest performing (LP) rats, n=49
  lifespan versus saline treated peers: lived significantly longer than their saline treated peers

## C#CCN(C)CCCOc1ccc(Cl)cc1Cl [clorgyline]
Isolated rat brain stem [1]; 250 ng/ml
  release of [3H]-SER to electrical stimulation: None of these compounds enhanced the release

## NCCNC(=O)c1ccc(Cl)cn1 [lazabemide]
Isolated rat brain stem [1]; 250 ng/ml
  release of [3H]-SER to electrical stimulation: None of these compounds enhanced the release

## COc1cc2c(cc1OC)C1CC(=O)C(CC(C)C)CN1CC2 (centres unmarked) [Tetrabenazine, Tetrabenazine HCl]
[6]
  depletion of norepinephrine and dopamine from their stores in the nerve terminals: at least 90%
